From patent US20120328516A1, “METHOD OF RADIOTHERAPY USING A RADIOLABELLED RGD PEPTIDE” (priority 2009, published 2012)
Starred links: 1 amine or outer side, 2 acyl side, 3 side chain; linkers in the order of their positions; H or OH if unused. Positions of bridges follow the written chain, without caps; N, C: chain ends. Residues, ends and D or L forms follow the SMILES beside them. Groups on a side chain read outwards from the residue. *: point of attachment. X3 = C/C(=N/O)C(C)(C)NCCC(CCNC(C)(C)/C(C)=N\O)CCN*; Glutaryl = O=C(CCCC(=O)[*:2])[*:1]; X2 = NC(=O)COCC(=O)NCCOCCOCCOCCN*

How the values were obtained:
[1] = tested on: subcutaneous U87 tumour; test: co-registered coronal micro-PET/CT imaging of mouse bearing a subcutaneous U87 tumour; assay type: in vivo, C57/BI6 mouse; details: same mouse imaged with ^18F-FDG (3A) and ^18F-fluciclatide (3B); comparison of the two images
Excerpt: FIGS. 3A and 3B show co-registered coronal micro-PET/CT images of the same C57/BI6 mouse bearing a subcutaneous U87 tumour on its left side. The emission image in 3A is that of ^18F-FDG and that in 3B is of ^18F-fluciclatide.

[2] = tested on: alphavbeta3/5 integrins; test: co-registered contrast-enhanced CT and SPECT emission imaging of a necrotic lymph node metastasis for a primary breast cancer; assay type: in vivo
Excerpt: The emission image was obtained for ^99mTc-maraciclatide. The necrotic centre in the CT image which corresponds to no uptake of the agent in the SPECT image.

SMILES	tumour uptake volume [1]	uptake of the agent in the necrotic centre ([2]; SPECT image, necrotic centre of lymph node metastasis seen in CT image)	uptake in the sternum ([2]; concluded to be due to bone marrow uptake)	region surrounding the necrotic centre due to angiogenesis and other expressions of alphavbeta3/5 integrins ([2]; emission image co-registered with CT)
OC[C@H]1OC(O)[C@H](F)[C@@H](O)[C@@H]1O (stereo partly shown) [^18F-FDG, fluorodeoxyglucose, reference compound]	difference in tumour uptake volumes	–	–	–
C/C(=N/O)C(C)(C)NCCC(CCNC(=O)CCCC(=O)NCCCC[C@@H]1NC(=O)CSC[C@@H](C(=O)NCCOCCOCCOCCNC(=O)COCC(N)=O)NC(=O)[C@H](Cc2ccccc2)NC(=O)[C@@H]2CSSC[C@H](NC1=O)C(=O)N[C@@H](CCCNC(=N)N)C(=O)NCC(=O)N[C@@H](CC(=O)O)C(=O)N2)CCNC(C)(C)/C(C)=N\O (stereo partly shown) [^99mTc-maraciclatide, metal not drawn] ({CH2CO}-K([Glutaryl-X3])CRGDCFC-X2; disulfide 2-6; thioether N-8)	–	no uptake	uptake in the sternum	highlighted
